Reference: patent US9376425B2, “Heterocyclic compounds as MDM2 inhibitors for the treatment of cancer” (AMGEN INC., priority 2011, dated 2016)

Molecular target: T1, human MDM2 (GST-hMDM2 1-188), interaction with biotinylated-p53 (1-83) (Homo sapiens, UniProt Q00987)
T1 construct: Amino acid residues 1-188 of human MDM2 were expressed; made in house; host or cells: Escherichia coli
Assay: improved HTRF assay (HTRF2 assay), inhibition of HDM2-p53 interaction
Format: binding
Conditions: 0.2 nM GST-hMDM2, 0.5 nM biotinylated-p53, 100 mM KF
Protocol: Residues 1-83 of human p53 were expressed as an amino-terminal AviTag™-TrxA-6xHis fusion protein (biotinylated p53) in E. coli. Each protein was purified from cell paste by affinity chromatography.
Specifically, 10 uL of GST-hMDM2 was incubated with 10 ul of diluted compound (various concentrations, serially diluted) in 10% DMSO for 20 minutes at room temperature. 20 uL of biotinylated-p53 was added to the GST-hMDM2+ compound mixture, and then incubated at room temperature for 60 min. 10 uL of detection buffer consisting of SA-XLent, anti-GST cryptate antibody and KF was added to GST-hMDM2, biotinylated-p53 and compound reaction and left at room temperature to reach equilibrium for >4 hrs. The final concentration of DMSO in the reaction was 2%. Time-resolved fluorescence readings were measured on a microplate multilabel reader. Percentage of inhibition was calculated relative to nutlin-3.

T1 sequence (Q00987 1-188): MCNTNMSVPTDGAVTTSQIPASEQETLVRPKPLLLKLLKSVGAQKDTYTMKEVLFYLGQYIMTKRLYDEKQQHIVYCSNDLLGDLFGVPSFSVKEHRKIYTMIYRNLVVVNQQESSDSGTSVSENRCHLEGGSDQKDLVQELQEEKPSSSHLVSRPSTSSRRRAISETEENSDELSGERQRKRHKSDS

SMILES | IC50 [nM]
CC[C@@H](CS(=O)(=O)C(C)(C)C)N1C(=O)[C@@H](CC(=O)O)O[C@H](c2cccc(Cl)c2)[C@H]1c1ccc(Cl)cc1F (single isomer, unassigned) [Example 316, 2-((2R,5R,6R)-4-((S)-1-(tert-Butylsulfonyl)butan-2-yl)-5-(4-chloro-2-fluorophenyl)-6-(3-chlorophenyl)-3-oxomorpholin-2-yl)acetic acid or 2-((2S,5R,6R)-4-((S)-1-(tert-butylsulfonyl)butan-2-yl)-5-(4-chloro-2-fluorophenyl)-6-(3-chlorophenyl)-3-oxomorpholin-2-yl)acetic acid] | 2
CC[C@@H](CN(c1ccccn1)S(=O)(=O)C1CC1)N1C(=O)[C@H](CC(=O)O)O[C@H](c2cccc(Cl)c2)[C@H]1c1ccc(Cl)cc1 (single isomer, unassigned) [Example 181, 2-((2S,5R,6R)-6-(3-chlorophenyl)-5-(4-chlorophenyl)-3-oxo-4-((S)-1-(N-(pyridin-2-yl)cyclopropanesulfonamido)butan-2-yl)morpholin-2-yl)acetic acid or 2-((2R,5R,6R)-6-(3-chlorophenyl)-5-(4-chlorophenyl)-3-oxo-4-((S)-1-(N-(pyridin-2-yl)cyclopropanesulfonamido)butan-2-yl)morpholin-2-yl)acetic acid] | 1
CC(C)(C)S(=O)(=O)C[C@H](C1CC1)N1C(=O)[C@@H](Cc2ncn[nH]2)O[C@H](c2cccc(Cl)c2)[C@H]1c1ccc(Cl)cc1 (single isomer, unassigned) [Example 390, (2R,5R,6R)-2-((1H-1,2,4-Triazol-5-yl)methyl)-4-((S)-2-(tert-butylsulfonyl)-1-cyclopropylethyl)-6-(3-chlorophenyl)-5-(4-chlorophenyl)morpholin-3-one or (2S,5R,6R)-2-((1H-1,2,4-triazol-5-yl)methyl)-4-((S)-2-(tert-butylsulfonyl)-1-cyclopropylethyl)-6-(3-chlorophenyl)-5-(4-chlorophenyl)morpholin-3-one] | 11
CC[C@@H](CN(c1ccccc1F)S(=O)(=O)C1CC1)N1C(=O)[C@@H]([C@@H](C)C(=O)O)O[C@H](c2cccc(Cl)c2)[C@H]1c1ccc(Cl)cc1 (single isomer, unassigned) [Example 253] | 18
CC[C@@H](CN(c1ccccc1Cl)S(=O)(=O)C1CC1)N1C(=O)[C@@H](CC(=O)O)O[C@H](c2cccc(Cl)c2)[C@H]1c1ccc(Cl)cc1 (single isomer, unassigned) [Example 264, 2-((2R,5R,6R)-6-(3-chlorophenyl)-5-(4-chlorophenyl)-4-((S)-1-(N-(2-chlorophenyl)cyclopropanesulfonamido)butan-2-yl)-3-oxomorpholin-2-yl)acetic acid or 2-((2S,5R,6R)-6-(3-chlorophenyl)-5-(4-chlorophenyl)-4-((S)-1-(N-(2-chlorophenyl)cyclopropanesulfonamido)butan-2-yl)-3-oxomorpholin-2-yl)acetic acid] | 19
CC(C)(C)S(=O)(=O)C[C@H](C1CC1)N1C(=O)[C@@H](Cc2ncn[nH]2)O[C@H](c2cccc(Cl)c2)[C@H]1c1ccc(Cl)cc1 (single isomer, unassigned) [Example 389, (2R,5R,6R)-2-((1H-1,2,4-Triazol-5-yl)methyl)-4-((S)-2-(tert-butylsulfonyl)-1-cyclopropylethyl)-6-(3-chlorophenyl)-5-(4-chlorophenyl)morpholin-3-one or (2S,5R,6R)-2-((1H-1,2,4-triazol-5-yl)methyl)-4-((S)-2-(tert-butylsulfonyl)-1-cyclopropylethyl)-6-(3-chlorophenyl)-5-(4-chlorophenyl)morpholin-3-one] | 19
CC[C@@H](CN(c1ccccc1F)S(=O)(=O)C1CC1)N1C(=O)[C@@H](CC(=O)O)O[C@H](c2cccc(Cl)c2)[C@H]1c1ccc(Cl)s1 (single isomer, unassigned) [Example 217, 2-((2R,5S,6R)-6-(3-chlorophenyl)-5-(5-chlorothiophen-2-yl)-4-((S)-1-(N-(2-fluorophenyl)cyclopropanesulfonamido)butan-2-yl)-3-oxomorpholin-2-yl)acetic acid or 2-((2S,5S,6R)-6-(3-chlorophenyl)-5-(5-chlorothiophen-2-yl)-4-((S)-1-(N-(2-fluorophenyl)cyclopropanesulfonamido)butan-2-yl)-3-oxomorpholin-2-yl)acetic acid] | < 1
CC[C@@H](CS(=O)(=O)C(C)(C)C)N1C(=O)[C@@H](CC(=O)O)O[C@H](c2cc(F)cc(Cl)c2)[C@H]1c1ccc(Cl)c(F)c1 (single isomer, unassigned) [Example 426, 2-((2R,5R,6R)-4-((S)-1-(tert-Butylsulfonyl)butan-2-yl)-5-(4-chloro-3-fluorophenyl)-6-(3-chloro-5-fluorophenyl)-3-oxomorpholin-2-yl)acetic acid or 2-((2S,5R,6R)-4-((S)-1-(tert-butylsulfonyl)butan-2-yl)-5-(4-chloro-3-fluorophenyl)-6-(3-chloro-5-fluorophenyl)-3-oxomorpholin-2-yl)acetic acid] | 1
CC(C)(C)S(=O)(=O)C[C@H](C1CC1)N1C(=O)[C@@H](CC(=O)O)O[C@H](c2ccc(F)c(Cl)c2)[C@H]1c1ccc(Cl)cc1 (single isomer, unassigned) [Example 320, 2-((2R,5R,6R)-4-((S)-2-(tert-Butylsulfonyl)-1-cyclopropylethyl)-6-(3-chloro-4-fluorophenyl)-5-(4-chlorophenyl)-3-oxomorpholin-2-yl)acetic acid or 2-((2S,5R,6R)-4-((S)-2-(tert-butylsulfonyl)-1-cyclopropylethyl)-6-(3-chloro-4-fluorophenyl)-5-(4-chlorophenyl)-3-oxomorpholin-2-yl)acetic acid] | 3
NS(=O)(=O)C[C@H]1O[C@H](c2cccc(Cl)c2)[C@@H](c2ccc(Cl)cc2)N([C@H](CN(c2ccccc2F)S(=O)(=O)C2CC2)C2CC2)C1=O (single isomer, unassigned) [Example 410, N-((S)-2-((2R,3R,6S)-2-(3-Chlorophenyl)-3-(4-chlorophenyl)-5-oxo-6-(sulfamoylmethyl)morpholino)-2-cyclopropylethyl)-N-(2-fluorophenyl)cyclopropanesulfonamide or N-((S)-2-((2S,3R,6S)-2-(3-chlorophenyl)-3-(4-chlorophenyl)-5-oxo-6-(sulfamoylmethyl)morpholino)-2-cyclopropylethyl)-N-(2-fluorophenyl)cyclopropanesulfonamide] | < 1
CC(C)(C)S(=O)(=O)C[C@H](C1CC1)N1C(=O)[C@@H](CC(=O)Nc2ccccc2F)O[C@H](c2cccc(Cl)c2)[C@H]1c1ccc(Cl)cc1 (single isomer, unassigned) [Example 353, 2-((2R,5R,6R)-4-((S)-2-(tert-Butylsulfonyl)-1-cyclopropylethyl)-6-(3-chlorophenyl)-5-(4-chlorophenyl)-3-oxomorpholin-2-yl)-N-(2-fluorophenyl)acetamide or 2-((2S,5R,6R)-4-((S)-2-(tert-butylsulfonyl)-1-cyclopropylethyl)-6-(3-chlorophenyl)-5-(4-chlorophenyl)-3-oxomorpholin-2-yl)-N-(2-fluorophenyl)acetamide] | 9
C[C@@H]1CCCN1S(=O)(=O)C[C@H](C1CC1)N1C(=O)[C@@H](CC(=O)O)O[C@H](c2cccc(Cl)c2)[C@H]1c1ccc(Cl)cc1 (single isomer, unassigned) [Example 304, 2-((2R,5R,6R)-6-(3-Chlorophenyl)-5-(4-chlorophenyl)-4-((S)-1-cyclopropyl-2-(((R)-2-methylpyrrolidin-1-yl)sulfonyl)ethyl)-3-oxomorpholin-2-yl)acetic acid or 2-((2S,5R,6R)-6-(3-chlorophenyl)-5-(4-chlorophenyl)-4-((S)-1-cyclopropyl-2-(((R)-2-methylpyrrolidin-1-yl)sulfonyl)ethyl)-3-oxomorpholin-2-yl)acetic acid] | < 1
CC[C@@H](CS(=O)(=O)C1CCC1)N1C(=O)[C@@H](CC(=O)O)O[C@H](c2cccc(Cl)c2)[C@H]1c1ccc(Cl)cc1 (single isomer, unassigned) [Example 141, 2-((2R,5R,6R)-6-(3-chlorophenyl)-5-(4-chlorophenyl)-4-((S)-1-(cyclobutylsulfonyl)butan-2-yl)-3-oxomorpholin-2-yl)acetic acid or 2-((2S,5R,6R)-6-(3-chlorophenyl)-5-(4-chlorophenyl)-4-((S)-1-(cyclobutylsulfonyl)butan-2-yl)-3-oxomorpholin-2-yl)acetic acid] | 1
C[C@@H](CS(=O)(=O)C(C)(C)C)N1C(=O)[C@@H](CC(=O)O)O[C@H](c2cc(F)cc(Cl)c2)[C@H]1c1ccc(Cl)c(F)c1 (single isomer, unassigned) [Example 423, 2-((2R,5R,6R)-4-((S)-1-(tert-Butylsulfonyl)propan-2-yl)-5-(4-chloro-3-fluorophenyl)-6-(3-chloro-5-fluorophenyl)-3-oxomorpholin-2-yl)acetic acid or 2-((2S,5R,6R)-4-((S)-1-(tert-butylsulfonyl)propan-2-yl)-5-(4-chloro-3-fluorophenyl)-6-(3-chloro-5-fluorophenyl)-3-oxomorpholin-2-yl)acetic acid] | 1
